Several values for one entry are separate records, joined by “and”; a condition that tells them apart may be missing. Identical values can stand only once. Toxic doses and inconclusive results are not listed.
System: BDF1 mice, P388 leukemia ip, median survival T/C
Assay: NCI In Vivo Anticancer Drug Screen. Data for tumor model P388 Leukemia (intraperitoneal) in B6D2F1 (BDF1) mice
Details: endpoint: median survival time, higher = longer survival
Outline: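 Transplantable tumour in mice; compound vs vehicle dosing; survival scored; ratio of treated to control reported.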

[1] = dose: 100.0 mg/kg/injection, schedule: Q01DX009 (ip), vehicle: saline with Tween-80
[2] = dose: 200.0 mg/kg/injection, schedule: Q01DX009 (ip), vehicle: saline with Tween-80
[3] = dose: 100.0 mg/kg/injection, schedule: Q04DX003 (ip), vehicle: saline with Tween-80

## O=NN(CCCl)C(=O)Nc1ccc(Cl)cc1
dose: 8.2 mg/kg/injection, schedule: Q04DX003 (ip), vehicle: saline with Tween-80
  T/C: 195 % of control
dose: 12.5 mg/kg/injection, schedule: Q04DX003 (ip), vehicle: saline with Tween-80
  T/C: 195 % of control
dose: 18.75 mg/kg/injection, schedule: Q04DX003 (ip), vehicle: saline with Tween-80
  T/C: 200 % of control

## ClCCN(CCCl)c1ccc(CNCCCNCc2ccc(N(CCCl)CCCl)cc2)cc1
dose: 2.5 mg/kg/injection, schedule: Q01DX009 (ip), vehicle: saline sonified
  T/C: 160 % of control
dose: 3.75 mg/kg/injection, schedule: Q01DX009 (ip), vehicle: saline sonified
  T/C: 170 % of control

## Cc1[nH]c2cc(Br)ccc2c1/C=N/NC(N)=S
dose: 25.0 mg/kg/injection, schedule: Q01DX001 (ip), vehicle: Klucel (hydroxypropylcellulose) (HPC)
  T/C: 107 % of control
dose: 50.0 mg/kg/injection, schedule: Q01DX001 (ip), vehicle: Klucel (hydroxypropylcellulose) (HPC)
  T/C: 102 % of control
dose: 100.0 mg/kg/injection, schedule: Q01DX001 (ip), vehicle: Klucel (hydroxypropylcellulose) (HPC)
  T/C: 103 % of control

## O=C1CN(c2ccccc2)CC(=O)N2CCCN12
dose: 50.0 mg/kg/injection, schedule: Q01DX005 (ip), vehicle: saline with Tween-80
  T/C: 92 % of control
dose: 200.0 mg/kg/injection, schedule: Q01DX005 (ip), vehicle: saline with Tween-80
  T/C: 88 % of control

## Nc1cc(=O)n(-c2ccccc2)[nH]1
dose: 50.0 mg/kg/injection, schedule: Q01DX009 (ip), vehicle: saline with Tween-80
  T/C: 105 % of control
[1]
  T/C: 102 % of control
[2]
  T/C: 109 % of control

## CC(=O)NC(Cc1ccc(F)cc1)C(=O)O (centres undefined)
[2]
  T/C: 121 % of control

## CCCOP(=S)(N1CC1(C)C)N1CC1(C)C (centres undefined)
dose: 66.0 mg/kg/injection, schedule: Q01DX009 (ip), vehicle: saline with Tween-80
  T/C: 168 % of control
[1]
  T/C: 209 % of control and 222 % of control
[3]
  T/C: 116 % of control
dose: 200.0 mg/kg/injection, schedule: Q04DX003 (ip), vehicle: saline with Tween-80
  T/C: 108 % of control

## O=C1CC(c2c[nH]c3nccnc23)NN1 (centres undefined)
dose: 12.5 mg/kg/injection, schedule: Q01DX009 (ip), vehicle: water
  T/C: 100 % of control
dose: 25.0 mg/kg/injection, schedule: Q01DX009 (ip), vehicle: water
  T/C: 101 % of control
dose: 25.0 mg/kg/injection, schedule: Q04DX003 (ip), vehicle: water
  T/C: 104 % of control
dose: 50.0 mg/kg/injection, schedule: Q01DX009 (ip), vehicle: water
  T/C: 110 % of control
dose: 50.0 mg/kg/injection, schedule: Q04DX003 (ip), vehicle: water
  T/C: 100 % of control
dose: 100.0 mg/kg/injection, schedule: Q01DX009 (ip), vehicle: water
  T/C: 100 % of control
dose: 100.0 mg/kg/injection, schedule: Q04DX003 (ip), vehicle: water
  T/C: 95 % of control
dose: 200.0 mg/kg/injection, schedule: Q01DX009 (ip), vehicle: water
  T/C: 103 % of control
dose: 200.0 mg/kg/injection, schedule: Q04DX003 (ip), vehicle: water
  T/C: 104 % of control
dose: 300.0 mg/kg/injection, schedule: Q01DX009 (ip), vehicle: water
  T/C: 103 % of control
dose: 400.0 mg/kg/injection, schedule: Q04DX003 (ip), vehicle: water
  T/C: 100 % of control

## Nc1nc(N)c2nc(Sc3ccc(Cl)cc3)c(-c3ccccc3)nc2n1
[3]
  T/C: 88 % of control
dose: 400.0 mg/kg/injection, schedule: Q04DX003 (ip), vehicle: saline with Tween-80
  T/C: 99 % of control

## O=[N+]([O-])c1ccc(CCSCCc2ccc([N+](=O)[O-])cc2)cc1
dose: 50.0 mg/kg/injection, schedule: Q01DX005 (ip), vehicle: Klucel (hydroxypropylcellulose) (HPC)
  T/C: 104 % of control
dose: 100.0 mg/kg/injection, schedule: Q01DX005 (ip), vehicle: Klucel (hydroxypropylcellulose) (HPC)
  T/C: 97 % of control
dose: 200.0 mg/kg/injection, schedule: Q01DX005 (ip), vehicle: Klucel (hydroxypropylcellulose) (HPC)
  T/C: 94 % of control

## O=S(=O)(Sc1ccc(N(CCCl)CCCl)cc1)c1ccc(N(CCCl)CCCl)cc1
[1]
  T/C: 122 % of control
dose: 132.0 mg/kg/injection, schedule: Q01DX009 (ip), vehicle: saline with Tween-80
  T/C: 110 % of control

## CCN(CC)CC(C)=C(B1OC(C)(C)C(C)(C)O1)B1OC(C)(C)C(C)(C)O1
dose: 50.0 mg/kg/injection, schedule: Q01DX001 (ip), vehicle: saline
  T/C: 110 % of control
dose: 100.0 mg/kg/injection, schedule: Q01DX001 (ip), vehicle: saline
  T/C: 105 % of control
dose: 200.0 mg/kg/injection, schedule: Q01DX001 (ip), vehicle: saline
  T/C: 100 % of control

From PubChem BioAssay AID328 (DTP/NCI, 2004)
